Measurements published in paper PMC11839852, “Preclinical comparison of (radio)lanthanides using mass spectrometry and nuclear imaging techniques: biodistribution of lanthanide-based tumor-targeting agents and lanthanides in ionic form” (European Journal of Nuclear Medicine and Molecular Imaging, 2024).
Where two headings read alike, the source gives them in different places. Marks after values point to notes of the source that are not given here.

Experiments:
[1] = test system: PC-3 PIP/flu tumor-bearing mice; conditions: Ln-PSMA-617; for Tissue uptake: Blood / Tissue uptake: Bone / Tissue uptake: Heart / Tissue uptake: Intestines / Tissue uptake: Kidneys / Tissue uptake: Liver / Tissue uptake: Lung / Tissue uptake: Muscle / Tissue uptake: Salivary glands / Tissue uptake: Spleen / Tissue uptake: Stomach: PC-3 PIP/flu tumor-bearing mice; for Tissue uptake: PC-3 flu tumor: PSMA-negative xenograft; for Tissue uptake: PC-3 PIP tumor: PSMA-positive xenograft; for PC-3 PIP tumor-to-background organ ratios: Tumor-to-blood / PC-3 PIP tumor-to-background organ ratios: Tumor-to-liver: estimated ratios (organ <0.5% ID/g)
[2] = test system: non-tumor-bearing immunocompetent FVB mice; assay: Biodistribution of lanthanide chloride salts LnCl3 (multiplexed ICP-MS); type: in vivo; conditions: for Tissue uptake: Blood / Tissue uptake: Bone / Tissue uptake: Brain / Tissue uptake: Heart / Tissue uptake: Intestines / Tissue uptake: Kidneys / Tissue uptake: Liver / Tissue uptake: Lung / Tissue uptake: Muscle / Tissue uptake: Pancreas / Tissue uptake: Salivary glands / Tissue uptake: Spleen / Tissue uptake: Stomach: non-tumor-bearing mice
[3] = 24 h p.i., estimated ratios (organ <0.5% ID/g)
[4] = 96 h p.i., estimated ratios (organ <0.5% ID/g)

With `O=C([O-])CN1CCN(CC(=O)[O-])CCN(CC(=O)NCC2CCC(C(=O)NC(Cc3ccc4ccccc4c3)C(=O)NCCCCC(NC(=O)NC(CCC(=O)O)C(=O)O)C(=O)O)CC2)CCN(CC(=O)[O-])CC1.[Lu+3]` (centres unmarked) [[^175Lu]Lu-PSMA-617] the “PC-3 PIP tumor-to-background organ ratios: Tumor-to-kidney” value ([1]; 1 h p.i.) was 2.7 ± 0.8, the “Tissue uptake: Blood” value ([1]; 1 h p.i.) was <0.5 % ID/g and the “Tissue uptake: Bone” value ([1]; 1 h p.i.) was <0.5 % ID/g. For the same compound, the “Tissue uptake: Heart” value ([1]; 1 h p.i.) was <0.5 % ID/g, the “Tissue uptake: Intestines” value ([1]; 1 h p.i.) was <0.5 % ID/g and the “Tissue uptake: Kidneys” value ([1]; 1 h p.i.) was 10 ± 4 % ID/g. The “Tissue uptake: Liver” value ([1]; 1 h p.i.) was <0.5 % ID/g, the “Tissue uptake: Lung” value ([1]; 1 h p.i.) was <0.5 % ID/g and the “Tissue uptake: Muscle” value ([1]; 1 h p.i.) was <0.5 % ID/g. For the same compound, the “Tissue uptake: Salivary glands” value ([1]; 1 h p.i.) was <0.5 % ID/g, the “Tissue uptake: Spleen” value ([1]; 1 h p.i.) was 0.64 ± 0.48 % ID/g and the “Tissue uptake: Stomach” value ([1]; 1 h p.i.) was 0.56 ± 0.19 % ID/g. The “Tissue uptake: PC-3 flu tumor” value ([1]; 1 h p.i.) was <0.5 % ID/g, the “Tissue uptake: PC-3 PIP tumor” value ([1]; 1 h p.i.) was 25 ± 3 % ID/g and the “PC-3 PIP tumor-to-background organ ratios: Tumor-to-blood” value ([1]; 1 h p.i.) was >51^*. For the same compound, the “PC-3 PIP tumor-to-background organ ratios: Tumor-to-liver” value ([1]; 1 h p.i.) was >51^*, the “PC-3 PIP tumor-to-background organ ratios: Tumor-to-kidney” value ([1]; 4 h p.i.) was 18 ± 3 and the “Tissue uptake: Blood” value ([1]; 4 h p.i.) was <0.5 % ID/g. For the same compound, the “Tissue uptake: Bone” value ([1]; 4 h p.i.) was <0.5 % ID/g, the “Tissue uptake: Heart” value ([1]; 4 h p.i.) was <0.5 % ID/g and the “Tissue uptake: Intestines” value ([1]; 4 h p.i.) was <0.5 % ID/g. For the same compound, the “Tissue uptake: Kidneys” value ([1]; 4 h p.i.) was 1.4 ± 0.4 % ID/g, the “Tissue uptake: Liver” value ([1]; 4 h p.i.) was <0.5 % ID/g and the “Tissue uptake: Lung” value ([1]; 4 h p.i.) was <0.5 % ID/g. The “Tissue uptake: Muscle” value ([1]; 4 h p.i.) was <0.5 % ID/g, the “Tissue uptake: Salivary glands” value ([1]; 4 h p.i.) was <0.5 % ID/g and the “Tissue uptake: Spleen” value ([1]; 4 h p.i.) was <0.5 % ID/g. The “Tissue uptake: Stomach” value ([1]; 4 h p.i.) was <0.5 % ID/g, the “Tissue uptake: PC-3 flu tumor” value ([1]; 4 h p.i.) was <0.5 % ID/g and the “Tissue uptake: PC-3 PIP tumor” value ([1]; 4 h p.i.) was 23 ± 3 % ID/g. The “PC-3 PIP tumor-to-background organ ratios: Tumor-to-blood” value ([1]; 4 h p.i.) was >47^* and the “PC-3 PIP tumor-to-background organ ratios: Tumor-to-liver” value ([1]; 4 h p.i.) was >47^*.

In the case of `[Cl][Lu]([Cl])[Cl]` [[^175Lu]LuCl3], the “Organ ratios: Blood-to-bone” value ([2]; 1 h p.i.) is reported as 0.38 ± 0.23, the “Organ ratios: Blood-to-liver” value ([2]; 1 h p.i.) is reported as 0.61 ± 0.35 and the “Organ ratios: Liver-to-bone” value ([2]; 1 h p.i.) is reported as 0.64 ± 0.13. For the same compound, the “Tissue uptake: Blood” value ([2]; 1 h p.i.) was 6.4 ± 2.7 % ID/g, the “Tissue uptake: Bone” value ([2]; 1 h p.i.) was 18 ± 3 % ID/g and the “Tissue uptake: Brain” value ([2]; 1 h p.i.) was <0.5 % ID/g. For the same compound, the “Tissue uptake: Heart” value ([2]; 1 h p.i.) was 3.6 ± 1.5 % ID/g, the “Tissue uptake: Intestines” value ([2]; 1 h p.i.) was 3.2 ± 1.1 % ID/g and the “Tissue uptake: Kidneys” value ([2]; 1 h p.i.) was 7.3 ± 1.7 % ID/g. For the same compound, the “Tissue uptake: Liver” value ([2]; 1 h p.i.) was 11 ± 3 % ID/g, the “Tissue uptake: Lung” value ([2]; 1 h p.i.) was 5.6 ± 2.2 % ID/g and the “Tissue uptake: Muscle” value ([2]; 1 h p.i.) was 1.5 ± 0.6 % ID/g. The “Tissue uptake: Pancreas” value ([2]; 1 h p.i.) was 2.6 ± 0.8 % ID/g, the “Tissue uptake: Salivary glands” value ([2]; 1 h p.i.) was 2.6 ± 0.9 % ID/g and the “Tissue uptake: Spleen” value ([2]; 1 h p.i.) was 3.8 ± 0.5 % ID/g. The “Tissue uptake: Stomach” value ([2]; 1 h p.i.) was 5.8 ± 2.1 % ID/g, the “Organ ratios: Liver-to-bone” value ([2]; 24 h p.i.) was 0.49 ± 0.19 and the “Organ ratios: Blood-to-bone” value [2, 3] was <0.02^*. The “Organ ratios: Blood-to-liver” value [2, 3] was <0.05^*, the “Tissue uptake: Blood” value ([2]; 24 h p.i.) was <0.5 % ID/g and the “Tissue uptake: Bone” value ([2]; 24 h p.i.) was 25 ± 5 % ID/g. For the same compound, the “Tissue uptake: Brain” value ([2]; 24 h p.i.) was <0.5 % ID/g, the “Tissue uptake: Heart” value ([2]; 24 h p.i.) was 0.54 ± 0.06 % ID/g and the “Tissue uptake: Intestines” value ([2]; 24 h p.i.) was 0.61 ± 0.02 % ID/g. The “Tissue uptake: Kidneys” value ([2]; 24 h p.i.) was 3.7 ± 1.0 % ID/g, the “Tissue uptake: Lung” value ([2]; 24 h p.i.) was 0.88 ± 0.13 % ID/g and the “Tissue uptake: Muscle” value ([2]; 24 h p.i.) was <0.5 % ID/g. For the same compound, the “Tissue uptake: Pancreas” value ([2]; 24 h p.i.) was <0.5 % ID/g, the “Tissue uptake: Salivary glands” value ([2]; 24 h p.i.) was 0.55 ± 0.17 % ID/g and the “Tissue uptake: Spleen” value ([2]; 24 h p.i.) was 3.5 ± 0.9 % ID/g. The “Tissue uptake: Stomach” value ([2]; 24 h p.i.) was 1.8 ± 0.3 % ID/g, the “Tissue uptake: Liver” value ([2]; 24 h p.i., listed as lutetium) was 12 ± 3 % ID/g and the “Tissue uptake: Liver” value ([2]; 24 h p.i., listed as natLu) was ~ 12 % ID/g. The “Organ ratios: Liver-to-bone” value ([2]; 96 h p.i.) was 0.14 ± 0.04, the “Organ ratios: Blood-to-bone” value [2, 4] was <0.01^* and the “Organ ratios: Blood-to-liver” value [2, 4] was <0.11^*. For the same compound, the “Tissue uptake: Blood” value ([2]; 96 h p.i.) was <0.5 % ID/g, the “Tissue uptake: Bone” value ([2]; 96 h p.i.) was 35 ± 4 % ID/g and the “Tissue uptake: Brain” value ([2]; 96 h p.i.) was <0.5 % ID/g. The “Tissue uptake: Heart” value ([2]; 96 h p.i.) was 0.89 ± 0.25 % ID/g, the “Tissue uptake: Intestines” value ([2]; 96 h p.i.) was 0.54 ± 0.14 % ID/g and the “Tissue uptake: Kidneys” value ([2]; 96 h p.i.) was 2.7 ± 0.2 % ID/g. The “Tissue uptake: Liver” value ([2]; 96 h p.i.) was 4.8 ± 0.9 % ID/g, the “Tissue uptake: Lung” value ([2]; 96 h p.i.) was 1.1 ± 0.2 % ID/g and the “Tissue uptake: Muscle” value ([2]; 96 h p.i.) was <0.5 % ID/g. For the same compound, the “Tissue uptake: Pancreas” value ([2]; 96 h p.i.) was <0.5 % ID/g, the “Tissue uptake: Salivary glands” value ([2]; 96 h p.i.) was 0.50 ± 0.06 % ID/g and the “Tissue uptake: Spleen” value ([2]; 96 h p.i.) was 2.3 ± 0.2 % ID/g. For the same compound, the “Tissue uptake: Stomach” value ([2]; 96 h p.i.) was 2.5 ± 0.2 % ID/g.

With `O=C([O-])CN1CCN(CC(=O)[O-])CCN(CC(=O)NC[C@H]2CC[C@H](C(=O)N[C@@H](Cc3ccc4ccccc4c3)C(=O)NCCCC[C@H](NC(=O)N[C@@H](CCC(=O)O)C(=O)O)C(=O)O)CC2)CCN(CC(=O)[O-])CC1.[153Eu+3]` [[^153Eu]Eu-PSMA-617] the “PC-3 PIP tumor-to-background organ ratios: Tumor-to-kidney” value ([1]; 1 h p.i.) was 3.3 ± 1.1, the “Tissue uptake: Blood” value ([1]; 1 h p.i.) was <0.5 % ID/g and the “Tissue uptake: Bone” value ([1]; 1 h p.i.) was <0.5 % ID/g. For the same compound, the “Tissue uptake: Heart” value ([1]; 1 h p.i.) was 0.52 ± 0.42 % ID/g, the “Tissue uptake: Intestines” value ([1]; 1 h p.i.) was <0.5 % ID/g and the “Tissue uptake: Kidneys” value ([1]; 1 h p.i.) was 8.1 ± 3.5 % ID/g. For the same compound, the “Tissue uptake: Liver” value ([1]; 1 h p.i.) was <0.5 % ID/g, the “Tissue uptake: Lung” value ([1]; 1 h p.i.) was <0.5 % ID/g and the “Tissue uptake: Muscle” value ([1]; 1 h p.i.) was <0.5 % ID/g. For the same compound, the “Tissue uptake: Salivary glands” value ([1]; 1 h p.i.) was <0.5 % ID/g, the “Tissue uptake: Spleen” value ([1]; 1 h p.i.) was 0.51 ± 0.17 % ID/g and the “Tissue uptake: Stomach” value ([1]; 1 h p.i.) was <0.5 % ID/g. The “Tissue uptake: PC-3 flu tumor” value ([1]; 1 h p.i.) was <0.5 % ID/g, the “Tissue uptake: PC-3 PIP tumor” value ([1]; 1 h p.i.) was 24 ± 3 % ID/g and the “PC-3 PIP tumor-to-background organ ratios: Tumor-to-blood” value ([1]; 1 h p.i.) was >50^*. For the same compound, the “PC-3 PIP tumor-to-background organ ratios: Tumor-to-liver” value ([1]; 1 h p.i.) was >50^*, the “PC-3 PIP tumor-to-background organ ratios: Tumor-to-kidney” value ([1]; 4 h p.i.) was 23 ± 3 and the “Tissue uptake: Blood” value ([1]; 4 h p.i.) was <0.5 % ID/g. The “Tissue uptake: Bone” value ([1]; 4 h p.i.) was <0.5 % ID/g, the “Tissue uptake: Heart” value ([1]; 4 h p.i.) was <0.5 % ID/g and the “Tissue uptake: Intestines” value ([1]; 4 h p.i.) was <0.5 % ID/g. The “Tissue uptake: Kidneys” value ([1]; 4 h p.i.) was 1.1 ± 0.3 % ID/g, the “Tissue uptake: Liver” value ([1]; 4 h p.i.) was <0.5 % ID/g and the “Tissue uptake: Lung” value ([1]; 4 h p.i.) was <0.5 % ID/g. The “Tissue uptake: Muscle” value ([1]; 4 h p.i.) was <0.5 % ID/g, the “Tissue uptake: Salivary glands” value ([1]; 4 h p.i.) was <0.5 % ID/g and the “Tissue uptake: Spleen” value ([1]; 4 h p.i.) was <0.5 % ID/g. The “Tissue uptake: Stomach” value ([1]; 4 h p.i.) was <0.5 % ID/g, the “Tissue uptake: PC-3 flu tumor” value ([1]; 4 h p.i.) was <0.5 % ID/g and the “Tissue uptake: PC-3 PIP tumor” value ([1]; 4 h p.i.) was 23 ± 3 % ID/g. The “PC-3 PIP tumor-to-background organ ratios: Tumor-to-blood” value ([1]; 4 h p.i.) was >46^* and the “PC-3 PIP tumor-to-background organ ratios: Tumor-to-liver” value ([1]; 4 h p.i.) was >46^*.
